Our source for the IC50 and Emax values is patent publication US20260207621A1 (Vividion Therapeutics, Inc., priority 2022, published 2026).

pIC50: −log10 of the molar value.

One assay has as its target T1, KEAP1 C151 (Homo sapiens, UniProt Q14145).
T1 construct: treating 500 μg of cell lysate generated from MDA-MB-468 breast cancer cells with DMSO or compound; endogenous in cells; host or cells: MDA-MB-468 breast cancer cell lysate
The assay can be described thus: Nrf2 TMT measurement: in vitro TE50 for KEAP1 C151 (IA-DTB competition, targeted TMT mass spectrometry) in MDA-MB-468 cell lysate. The format is binding. Particulars: in vitro target engagement of KEAP1 C151, targeted TMT, read-out: KEAP1_C151 TE50. The procedure:
In vitro TE50 values for KEAP_C151 were obtained by treating 500 μg of cell lysate generated from MDA-MB-468 breast cancer cells with DMSO or compound for 1 hour at room temperature followed by the addition of 200 μM IA-DTB (in DMSO) for one hour at room temperature. Samples were then precipitated by the addition of 8× ice cold acetonitrile and incubated at −80° C. for two hours. Protein was then pelleted by centrifugation (4,200 RPM, 45 min, 4° C.). The pelleted material was resuspended in 9M Urea, 50 mM ammonium bicarbonate and proteins were reduced and alkylated by the addition of DTT and iodoacetamide (10 and 30 mM, respectively). Following reduction and alkylation, samples were exchanged into 2M urea (Zeba spin desalting plates, Thermo Fisher) and digested with Trypsin. IA-DTB labeled peptides were isolated with streptavidin agarose resin. Enriched peptides were eluted by the addition of 50% acetonitrile (ACN) 0.1% Formic Acid (FA) and dried in a SpeedVac vacuum concentrator.
Dried peptides were resuspended in 0.2 M EPPS pH 8.5 and treated with 6.5 μL of 11-plex tandem mass tag (TMT) (8.3 μg/μL in dry ACN) for 2 hours at room temperature. Reactions were quenched by the addition of 6.5 μL of 5% Hydroxylamine. Samples were then combined and desalted on a Biotage Evolute express ABN plate (600-0010-PX01).
Targeted TMT. Targeted TMT measurements were collected using an Orbitrap LumosTribrid Mass Spectrometer (Thermo Scientific) coupled to an UltiMate 3000 Series Rapid Separation LC system and autosampler (Thermo Scientific Dionex). Peptides were eluted onto a custom C18 capillary analytical column (75-μm inner diameter fused silica, packed with Acclaim PepMap C18 resin (Thermo Scientific)) using an Acclaim PepMap 100 (Thermo 164535) loading column, and separated at a flow rate of 1.0 μl min−1. Data were acquired using a specific MS3-based TMT method targeting the peptide containing KEAP1 C151 (C(+324.2)[…], +3 charge state) where MS2 peptide fragmentation is triggered upon detection of the peptide precursor ion. Subsequent MS3 analysis was then performed using pre-selected peptide fragment ions that were isolated for fragmentation using synchronous precursor selection. RAW files were converted to MZXML format and searched with the SEQUEST algorithm using the MassPike software package. TMT quantitation was performed with a filter requiring at least ten summed signal-to-noise for control channels. Quantified signals were used for dose response curve-fitting and IC50 calculation using R's drc package.

A further assay deals with Nrf2. The assay can be described thus: Nrf2 antagonism assay: ARE luciferase reporter in KYSE-70 cells. Particulars: Homo sapiens, KYSE-70, KYSE-70 cells, positive Imax corresponds to Nrf2 antagonism, read-out: KYSE70 Cellular ARE Luciferase Imax (%). The format is cell-based. An excerpt:
NRF2 binds to a promoter region, antioxidant response element (ARE), to initiate expression of multiple genes. ARE luciferase reporter assays are used to test whether a ligand can activate or repress the expression of target genes using luciferase as a reporter gene.
KYSE-70 is an esophageal squamous cell carcinoma cell line with a Nrf2 mutation at amino acid position W24C. This mutation lowers the affinity between the E3 ligase that includes KEAP1 and Nrf2, resulting in a state in which the synthesis rate of new Nrf2 is faster than the E3's degradation rate of Nrf2, resulting in a “Nrf2 high” state. In KYSE-70 cells, genes are inserted directly after the ARE that trigger the expression of luciferase. Without a NRF2 antagonist in this modified KYSE70 cell line which has an inherently “NRF2 high state”, luciferase is expressed, and a signal is observed.
Nrf2 antagonists bind at C151 of KEAP1 and stabilize the E3 which results in an increased degradation rate of Nrf2. Increased degradation of Nrf2 results in less expression of luciferase, and therefore a less intense signal.
An IC50 is generated from the dose-response curve and an Imax. A positive Imax corresponds to Nrf2 antagonism. Imax >90% correlates with in vivo tumor grown inhibition. Compounds with Imax >50% were included in this description.
(Reporter assays use an easily measured gene product as a stand-in for the process of interest.)

T1 sequence (Q14145 whole entry): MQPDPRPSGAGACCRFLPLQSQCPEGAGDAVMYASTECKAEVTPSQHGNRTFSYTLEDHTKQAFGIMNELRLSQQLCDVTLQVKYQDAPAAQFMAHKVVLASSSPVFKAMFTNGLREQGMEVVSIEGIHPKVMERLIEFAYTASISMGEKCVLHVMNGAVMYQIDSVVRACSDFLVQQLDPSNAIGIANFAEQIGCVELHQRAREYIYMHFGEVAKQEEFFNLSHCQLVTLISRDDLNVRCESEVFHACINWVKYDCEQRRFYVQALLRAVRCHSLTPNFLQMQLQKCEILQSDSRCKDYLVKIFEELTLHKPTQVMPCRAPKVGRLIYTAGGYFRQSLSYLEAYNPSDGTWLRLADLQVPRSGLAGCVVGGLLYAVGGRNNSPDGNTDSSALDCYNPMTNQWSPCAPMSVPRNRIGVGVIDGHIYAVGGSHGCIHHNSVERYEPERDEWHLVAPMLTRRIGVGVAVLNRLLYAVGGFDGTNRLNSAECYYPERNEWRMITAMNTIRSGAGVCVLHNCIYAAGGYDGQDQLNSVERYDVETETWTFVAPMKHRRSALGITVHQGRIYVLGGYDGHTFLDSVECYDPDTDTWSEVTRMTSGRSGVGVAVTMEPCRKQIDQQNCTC

For `C=CC(=O)N1CCOCC1c1cc(Cl)cc(-c2cc(F)cc(C(N)=O)c2)c1` (single isomer, unassigned) [Compound 72, 3′-(4-acryloylmorpholin-3-yl)-5′-chloro-5-fluoro-[1,1′-biphenyl]-3-carboxamide], the pIC50 at KEAP1 C151 was 7.57. Besides, the Emax in the assay on Nrf2 turned out to be 80%.
As for `C=CC(=O)N1CCOC[C@H]1c1cc(Cl)cc(-c2ncc(C(N)=O)o2)c1` (single isomer, unassigned) [Compound 220], on KEAP1 C151, the pIC50 was 7.31. The Emax in the assay with Nrf2 amounted to 73%.
For `C=CC(=O)N1CCOC[C@H]1c1cc(Cl)cc(-n2cnc(N)n2)c1` [Compound 215, (R)-1-(3-(3-(3-amino-1H-1,2,4-triazol-1-yl)-5-chlorophenyl)morpholino)prop-2-en-1-one] the same measures were 6.46 and 65%.
For `C=CC(=O)N1CCOC[C@H]1c1cc(Cl)cc(-c2cnc(N)cn2)c1` (single isomer, unassigned) [Compound 251] the same measures were 7.77 and 93%.
On to `C=CC(=O)N1CC[C@@](C)(O)C[C@@H]1c1cc(Cl)cc(-c2ncc(N)cn2)c1` (single isomer, unassigned) [Compound 264], for which the pIC50 at KEAP1 C151 was 6.80. The Emax in the assay on Nrf2 stood at 86%.
For the compound `C=CC(=O)N1CCOC[C@H]1c1cc(Cl)cc(-c2ncc(N)c(OC)n2)c1` (single isomer, unassigned) [Compound 254], the pIC50 at KEAP1 C151 is 7.07. In addition, in the assay with Nrf2, the Emax stood at 92%.
With `C=CC(=O)N1CC2(CCCC2)OCC1(C)c1cc(Cl)cc(-c2cc(N)ncn2)c1` (single isomer, unassigned) [Compound 170, 1-(8-(3-(6-aminopyrimidin-4-y1)-5-chlorophenyl)-8-methyl-6-oxa-9-azaspiro[4.5]decan-9-yl)prop-2-en-1-one], the pIC50 on KEAP1 C151 is 5.78. For the same compound, the Emax in the assay with Nrf2 stood at 81%.
With `C=CC(=O)N1CCS(=O)(=O)CC1c1cc(Cl)cc(-c2ccn(C)c(=O)c2)c1` (racemic) [Compound 29, 4-(3-(4-acryloyl-1,1-dioxidothiomorpholin-3-yl)-5-chlorophenyl)-1-methylpyridin-2(1H)-one], on KEAP1 C151, the pIC50 was 6.48. The Emax in the assay with Nrf2 came to 62%.
`C=CC(=O)N1CC(C)(C)OC[C@H]1c1cc(Cl)cc(-c2ncc(N)cn2)c1` (single isomer, unassigned) [Compound 156]: at KEAP1 C151, the pIC50 was 6.98. Moreover, in the assay with Nrf2, the Emax is 94%.
Consider `C=CC(=O)N1CCOCC1c1cc(Cl)cc(-c2ccc(C(N)=O)cc2)c1` (single isomer, unassigned) [Compound 70, 3′-(4-acryloylmorpholin-3-yl)-5′-chloro-[1,1′-biphenyl]-4-carboxamide], for which the pIC50 on KEAP1 C151 is 7.27. The Emax with Nrf2 came to 81%.
`C=CC(=O)N1CCOCC1c1cc(Cl)cc(-c2ccc3nccnc3c2)c1` (single isomer, unassigned) [Compound 34, 1-(3-(3-chloro-5-(quinoxalin-6-yl)phenyl)morpholino)prop-2-en-1-one]: on KEAP1 C151, the pIC50 was 7.74. Moreover, the Emax with Nrf2 was 83%.
For `C=CC(=O)N1CCOC[C@H]1c1cc(Cl)cc(-c2cc3[nH]ccc3cn2)c1` (single isomer, unassigned) [Compound 296], on KEAP1 C151, the pIC50 is 7.44. Moreover, in the assay on Nrf2, the Emax stood at 96%.
`C=CC(=O)N1CCOC[C@H]1c1cc(Cl)cc(C2CCNC(=O)N2)c1` (single isomer, unassigned) [Compound 242]: at KEAP1 C151, the pIC50 is 6.60. Moreover, the Emax with Nrf2 came out at 59%.
With `C=CC(=O)N1CCOC[C@H]1c1cc(Cl)cc(-c2ncc(NC(C)=O)cn2)c1` (single isomer, unassigned) [Compound 248], the pIC50 at KEAP1 C151 was 8.00. In addition, the Emax in the assay on Nrf2 came out at 89%.
For `C=CC(=O)N1CC2(CC2)OCC12COc1c(-c3ccnc(N)n3)cc(Cl)cc12` (single isomer, unassigned) [Compound 192], on KEAP1 C151, the pIC50 is 5.17. For the same compound, the Emax with Nrf2 was 64%.
As for `C=CC(=O)N1CCOCC1c1cc(Cl)cc(-c2ccnc(C(N)=O)n2)c1` (single isomer, unassigned) [Compound 89, 4-(3-(4-acryloylmorpholin-3-yl)-5-chlorophenyl)pyrimidine-2-carboxamide], the pIC50 on KEAP1 C151 is 7.44. The Emax in the assay on Nrf2 worked out at 73%.
Turning to `C=CC(=O)N1CCOC[C@H]1c1cc(Cl)cc(-c2ncccn2)c1` (single isomer, unassigned) [Compound 10], the pIC50 on KEAP1 C151 is 7.64. Besides, in the assay on Nrf2, the Emax amounted to 79%.
For `C=CC(=O)N1CCOC[C@H]1c1cc(Cl)cc(-c2ncc(F)c(N)n2)c1` (single isomer, unassigned) [Compound 263] the same measures were 7.72 and 93%.
`C=CC(=O)N1CCOC[C@H]1c1cc(Cl)cc(-c2nc(N)[nH]c(=O)n2)c1` (single isomer, unassigned) [Compound 177]: the pIC50 at KEAP1 C151 is 6.82. Further, the Emax in the assay with Nrf2 was determined as 87%.
In the case of `C=CC(=O)N1CCOCC1c1cc(Cl)cc(-c2cc[nH]c(=O)c2)c1` (single isomer, unassigned) [Compound 11, 4-(3-(4-acryloylmorpholin-3-yl)-5-chlorophenyl)pyridin-2(1H)-one], the pIC50 at KEAP1 C151 was 7.17. In addition, the Emax with Nrf2 stood at 79%.
With `C=CC(=O)N1[C@H](C)COC[C@H]1c1cc(Cl)nc(-c2ccn3ccnc3c2)c1` (single isomer, unassigned) [Compound 138], the pIC50 at KEAP1 C151 is 7.39. The Emax in the assay on Nrf2 was 75%.
Regarding `C=CC(=O)N1CCOCC1c1cc(Cl)cc(-c2ccnc(C)n2)c1` (single isomer, unassigned) [Compound 35, 1-(3-(3-chloro-5-(2-methylpyrimidin-4-yl)phenyl)morpholino)prop-2-en-1-one], the pIC50 on KEAP1 C151 was 7.75. In the assay on Nrf2, the Emax came out at 89%.
For `C=CC(=O)N1CCOC[C@H]1c1cc(Cl)cc(-c2nccc(C)n2)c1` (single isomer, unassigned) [Compound 87], the pIC50 on KEAP1 C151 is 8.00. Further, the Emax in the assay with Nrf2 came out at 81%.
Turning to `C=CC(=O)N1CCC(F)(F)CC1c1cc(Cl)cc(-c2cc(C)ncn2)c1` (single isomer, unassigned) [Compound 285, 1-(2-(3-chloro-5-(6-methylpyrimidin-4-yl)phenyl)-4,4-difluoropiperidin-1-yl)prop-2-en-1-one], on KEAP1 C151, the pIC50 is 7.66. Besides, the Emax in the assay on Nrf2 came to 83%.
Turning to `C=CC(=O)N1CCOC[C@H]1c1cc(Cl)cc(-c2nnn(C)n2)c1` (single isomer, unassigned) [Compound 9], on KEAP1 C151, the pIC50 was 7.22. For the same compound, the Emax in the assay on Nrf2 amounted to 76%.
With `C=CC(=O)N1CCOCC1c1cc(Cl)cc(-c2cnc3cccnc3c2)c1` (single isomer, unassigned) [Compound 37, 1-(3-(3-chloro-5-(1,5-naphthyridin-3-yl)phenyl)morpholino)prop-2-en-1-one], the pIC50 on KEAP1 C151 is 7.66. Further, the Emax with Nrf2 came out at 85%.
As for `C=CC(=O)N1CC(F)(F)CCC1c1cc(Cl)cc(-c2ncc(N)cn2)c1` (single isomer, unassigned) [Compound 238, 1-(2-(3-(5-aminopyrimidin-2-yl)-5-chlorophenyl)-5,5-difluoropiperidin-1-yl)prop-2-en-1-one], the pIC50 on KEAP1 C151 is 7.47. Further, the Emax with Nrf2 worked out at 82%.
As to `C=CC(=O)N1CCOC[C@H]1c1cc(Cl)cc(-c2ncncn2)c1` (single isomer, unassigned) [Compound 147], the pIC50 at KEAP1 C151 was 6.74. In addition, the Emax with Nrf2 is 74%.
